These results are taken from US20260210939A1, “MODIFIED OLFACTORY RECEPTORS” (GIVAUDAN SA, priority 2022, published 2026).

Read-outs that look alike come from different tables or passages of the source.

In series [1] the test system is human class II OR identified in the library screening. The series is described as follows: Confirmatory dose-response analysis of library-hit OR with cognate ligand, wild-type vs C-terminal domain SEQ ID NO: 221 (Table 17).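 For all read-outs here: Wild-type receptor sequences expressed from the pcDNA3.1(+) vector and compared with the C-terminally modified receptors in dose-response tests using each receptor's cognate ligand.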 Particulars: for Fold improvement efficacy: maximal induction; for EC50: read-out: Potency, EC50 changed C-term; for Detection threshold; Fold improvement efficacy: under detection threshold.
Protocol: (§1) Selected ligand—OR pairs were then tested in a confirmatory test with a dose response analysis.
(§2) For selected receptors, the wild-type sequence was synthesized and cloned into pcDNA3.1 (+). Dose-response analysis with the cognate ligand was then performed for both the wild-type and the modified sequence.

Series [2] addresses human class II OR identified in the library screening (Homo sapiens, UniProt P34982). The series is described as above. Particulars: read-out: Potency, EC50 changed C-term; OR1D2, modified C-terminus SEQ ID NO: 221 (SEQ ID NO: 336).
Target sequence in this assay (P34982 1-291): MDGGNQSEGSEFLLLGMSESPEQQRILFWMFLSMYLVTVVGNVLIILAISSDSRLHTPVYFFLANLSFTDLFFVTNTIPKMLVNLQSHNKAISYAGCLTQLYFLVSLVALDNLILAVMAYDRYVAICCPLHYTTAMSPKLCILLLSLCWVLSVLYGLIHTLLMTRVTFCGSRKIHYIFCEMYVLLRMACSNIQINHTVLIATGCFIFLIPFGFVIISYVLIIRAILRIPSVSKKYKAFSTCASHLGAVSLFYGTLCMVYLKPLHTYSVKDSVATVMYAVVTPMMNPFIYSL
Protocol: as §1, §2
Series [3] deals with human class II OR identified in the library screening.
Protocol: as §1, §2
The target of series [4] is human class II OR identified in the library screening (Homo sapiens, UniProt P34982).
Target sequence in this assay (P34982 whole entry, the tested form may be a part): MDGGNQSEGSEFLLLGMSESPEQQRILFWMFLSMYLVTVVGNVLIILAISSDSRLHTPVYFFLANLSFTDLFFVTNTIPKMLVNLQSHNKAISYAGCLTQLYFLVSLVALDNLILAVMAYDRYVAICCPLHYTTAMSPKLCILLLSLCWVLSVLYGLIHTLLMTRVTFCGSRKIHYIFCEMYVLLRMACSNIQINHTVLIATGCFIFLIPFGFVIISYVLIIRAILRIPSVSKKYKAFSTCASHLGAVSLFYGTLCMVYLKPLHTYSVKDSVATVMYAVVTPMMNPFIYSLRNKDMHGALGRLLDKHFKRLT
Protocol: as §1, §2
Series [5] concerns the target human class II OR identified in the library screening (Homo sapiens, UniProt A6NM03). The series is described as follows: Confirmatory dose-response analysis of library-hit OR with cognate ligand, wild-type vs C-terminal domain SEQ ID NO: 221 (Table 17).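 Note: Wild-type receptor sequences expressed from the pcDNA3.1(+) vector and compared with the C-terminally modified receptors in dose-response tests using each receptor's cognate ligand.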 The note with it: read-out: Potency, EC50 changed C-term; OR2AG2 (Y28C), modified C-terminus SEQ ID NO: 221 (SEQ ID NO: 379).
Protocol: as §1, §2

Series [6] has as its target human class II OR identified in the library screening (Homo sapiens, UniProt A6NM03, Y28C).
Protocol: as §1, §2
Series [7] concerns the target human class II OR identified in the library screening (Homo sapiens, UniProt O60403).
Protocol: as §1, §2
The target of series [8] is T1, OR2T4 (Homo sapiens, UniProt Q8NH00, D328E/G331D/M330K).
T1 sequence (Q8NH00 with tags, fused parts or gaps D328E/M330K/G331D): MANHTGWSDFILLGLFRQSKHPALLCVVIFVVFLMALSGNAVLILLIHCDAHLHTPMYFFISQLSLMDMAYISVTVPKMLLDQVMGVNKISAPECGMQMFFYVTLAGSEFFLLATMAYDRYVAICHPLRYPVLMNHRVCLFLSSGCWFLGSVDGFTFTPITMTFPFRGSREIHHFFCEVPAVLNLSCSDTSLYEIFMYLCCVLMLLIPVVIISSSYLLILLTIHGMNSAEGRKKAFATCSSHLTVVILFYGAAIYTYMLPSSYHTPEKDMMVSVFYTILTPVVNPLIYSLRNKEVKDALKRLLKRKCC

For series [9], the target named is T1, OR2T4. The series is described as follows: cell-based.
Series [10] deals with human class II OR identified in the library screening (Homo sapiens, UniProt Q8NGP4). The series is described as follows: Confirmatory dose-response analysis of library-hit OR with cognate ligand, wild-type vs C-terminal domain SEQ ID NO: 221 (Table 17).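 Note: Wild-type receptor sequences expressed from the pcDNA3.1(+) vector and compared with the C-terminally modified receptors in dose-response tests using each receptor's cognate ligand.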 The note with it: read-out: Potency, EC50 changed C-term; OR5M3, modified C-terminus SEQ ID NO: 221 (SEQ ID NO: 559).
Target sequence in this assay (Q8NGP4 1-290): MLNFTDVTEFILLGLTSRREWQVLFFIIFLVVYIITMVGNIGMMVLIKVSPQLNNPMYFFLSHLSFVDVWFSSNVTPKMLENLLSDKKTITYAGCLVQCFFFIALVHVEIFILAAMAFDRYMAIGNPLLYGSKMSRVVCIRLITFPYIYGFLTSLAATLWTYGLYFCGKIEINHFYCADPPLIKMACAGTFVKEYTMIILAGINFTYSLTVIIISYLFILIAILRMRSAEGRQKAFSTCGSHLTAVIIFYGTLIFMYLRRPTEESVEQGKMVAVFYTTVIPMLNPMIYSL
Protocol: as §1, §2
Series [11] deals with T2, human class II OR identified in the library screening (Homo sapiens, UniProt Q8NGP4). Described as above.
T2 sequence (Q8NGP4 whole entry, the tested form may be a part): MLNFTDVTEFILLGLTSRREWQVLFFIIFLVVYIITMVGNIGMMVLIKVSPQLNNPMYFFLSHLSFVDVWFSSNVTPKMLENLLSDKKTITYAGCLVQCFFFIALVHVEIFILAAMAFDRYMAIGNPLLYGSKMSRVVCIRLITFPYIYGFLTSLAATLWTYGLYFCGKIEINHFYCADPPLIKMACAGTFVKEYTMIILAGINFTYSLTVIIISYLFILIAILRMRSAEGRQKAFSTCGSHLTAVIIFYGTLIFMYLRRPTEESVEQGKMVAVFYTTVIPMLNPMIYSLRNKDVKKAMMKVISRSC
Protocol: as §1, §2
For series [12], the target named is T2, human class II OR identified in the library screening.
Protocol: as §1, §2
Series [13] has as its target human class II OR identified in the library screening (Homo sapiens, UniProt Q8NH80). The series is described as follows: Confirmatory dose-response analysis of library-hit OR with cognate ligand, wild-type vs C-terminal domain SEQ ID NO: 221 (Table 17).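 Note: Wild-type receptor sequences expressed from the pcDNA3.1(+) vector and compared with the C-terminally modified receptors in dose-response tests using each receptor's cognate ligand.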 Particulars: read-out: Potency, EC50 changed C-term; OR10D3, modified C-terminus SEQ ID NO: 221 (SEQ ID NO: 671).
Target sequence in this assay (Q8NH80 1-290): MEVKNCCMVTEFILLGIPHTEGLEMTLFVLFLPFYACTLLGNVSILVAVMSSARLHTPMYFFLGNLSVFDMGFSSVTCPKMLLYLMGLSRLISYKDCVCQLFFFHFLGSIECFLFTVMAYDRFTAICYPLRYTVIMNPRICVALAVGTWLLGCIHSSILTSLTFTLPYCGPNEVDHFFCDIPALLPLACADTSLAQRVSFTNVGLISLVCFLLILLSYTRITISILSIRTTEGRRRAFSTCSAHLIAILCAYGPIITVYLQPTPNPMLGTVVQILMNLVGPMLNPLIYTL
Protocol: as §1, §2
For series [14] the target is unchanged.
Target sequence in this assay (Q8NH80 whole entry, the tested form may be a part): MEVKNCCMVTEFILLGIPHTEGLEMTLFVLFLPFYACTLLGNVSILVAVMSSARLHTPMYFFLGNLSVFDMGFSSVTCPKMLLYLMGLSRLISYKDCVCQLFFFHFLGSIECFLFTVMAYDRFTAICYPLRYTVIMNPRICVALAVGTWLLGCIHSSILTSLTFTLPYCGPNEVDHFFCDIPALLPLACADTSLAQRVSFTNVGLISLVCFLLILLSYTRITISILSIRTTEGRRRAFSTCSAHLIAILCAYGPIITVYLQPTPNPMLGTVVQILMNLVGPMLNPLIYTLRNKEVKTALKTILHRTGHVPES
Protocol: as §1, §2
Series [15] deals with human class II OR identified in the library screening (Homo sapiens, UniProt Q96R48).
human class II OR identified in the library screening (Homo sapiens, UniProt Q96R48), sequence (Q96R48 whole entry): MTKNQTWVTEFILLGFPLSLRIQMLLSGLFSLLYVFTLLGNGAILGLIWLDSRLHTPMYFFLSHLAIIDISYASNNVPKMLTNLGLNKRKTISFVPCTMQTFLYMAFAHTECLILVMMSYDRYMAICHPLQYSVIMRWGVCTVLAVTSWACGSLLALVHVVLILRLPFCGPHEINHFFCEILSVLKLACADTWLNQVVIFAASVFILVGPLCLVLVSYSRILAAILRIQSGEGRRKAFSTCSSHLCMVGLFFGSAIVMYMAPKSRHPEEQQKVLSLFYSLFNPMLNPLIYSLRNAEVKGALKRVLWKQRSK
Protocol: as §1, §2
The target in series [16] is human class II OR identified in the library screening (Homo sapiens, UniProt A4D2G3).
human class II OR identified in the library screening (Homo sapiens, UniProt A4D2G3), sequence (A4D2G3 whole entry): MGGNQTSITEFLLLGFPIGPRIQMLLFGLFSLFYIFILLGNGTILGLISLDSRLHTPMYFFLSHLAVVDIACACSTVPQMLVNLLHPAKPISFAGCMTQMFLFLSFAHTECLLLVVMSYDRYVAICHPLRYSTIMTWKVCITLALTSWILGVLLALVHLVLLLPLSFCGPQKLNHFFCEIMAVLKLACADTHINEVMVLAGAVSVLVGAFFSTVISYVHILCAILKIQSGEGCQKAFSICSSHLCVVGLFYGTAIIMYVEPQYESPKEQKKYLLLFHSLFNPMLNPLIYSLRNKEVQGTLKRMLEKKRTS
Protocol: as §1, §2
Series [17] concerns the target human class II OR identified in the library screening (Homo sapiens, UniProt Q15622).
Protocol: as §1, §2
The target of series [18] is human class II OR identified in the library screening (Homo sapiens, UniProt O76100).
human class II OR identified in the library screening (Homo sapiens, UniProt O76100), sequence (O76100 whole entry, the tested form may be a part): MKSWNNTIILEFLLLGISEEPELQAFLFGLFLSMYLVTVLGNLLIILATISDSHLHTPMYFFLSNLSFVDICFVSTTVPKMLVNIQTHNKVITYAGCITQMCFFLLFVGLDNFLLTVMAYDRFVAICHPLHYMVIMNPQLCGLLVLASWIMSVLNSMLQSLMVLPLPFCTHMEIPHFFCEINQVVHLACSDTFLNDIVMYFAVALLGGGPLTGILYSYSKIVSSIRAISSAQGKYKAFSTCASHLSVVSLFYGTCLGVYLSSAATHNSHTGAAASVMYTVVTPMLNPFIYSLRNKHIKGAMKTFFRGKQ
Protocol: as §1, §2
Series [19] concerns the target human class II OR identified in the library screening (Homo sapiens, UniProt Q8WZ84). The series is described as follows: Confirmatory dose-response analysis of library-hit OR with cognate ligand, wild-type vs C-terminal domain SEQ ID NO: 221 (Table 17). Particulars: OR8D1, wild-type sequence.
Protocol: as §1, §2
Series [20] concerns the target human class II OR identified in the library screening (Homo sapiens, UniProt Q8NGC4). The description is as above. The note with it: read-out: Potency, EC50 changed C-term; OR10G3 (S73G), modified C-terminus SEQ ID NO: 221 (SEQ ID NO: 673).
Protocol: as §1, §2
[21] abbreviates: OR5M3, modified C-terminus SEQ ID NO: 221 vs wild-type.
The mark [22] stands for this setting: OR8D1, modified C-terminus SEQ ID NO: 221 (SEQ ID NO: 631).
[23] abbreviates: OR8D1, modified C-terminus SEQ ID NO: 221 vs wild-type.

What is called EC50 is the concentration at which the effect is half-maximal.

human class II OR identified in the library screening (Homo sapiens, UniProt O60403), sequence (O60403 whole entry): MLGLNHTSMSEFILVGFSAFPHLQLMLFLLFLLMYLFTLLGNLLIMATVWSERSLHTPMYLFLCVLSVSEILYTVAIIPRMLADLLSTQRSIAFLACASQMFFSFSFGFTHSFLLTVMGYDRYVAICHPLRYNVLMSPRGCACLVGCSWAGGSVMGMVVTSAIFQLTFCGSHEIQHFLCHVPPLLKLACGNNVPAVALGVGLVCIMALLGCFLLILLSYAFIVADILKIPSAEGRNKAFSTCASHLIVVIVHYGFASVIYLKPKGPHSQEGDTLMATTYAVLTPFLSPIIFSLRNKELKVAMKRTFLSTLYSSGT
human class II OR identified in the library screening (Homo sapiens, UniProt Q8NGC4), sequence (Q8NGC4 1-291): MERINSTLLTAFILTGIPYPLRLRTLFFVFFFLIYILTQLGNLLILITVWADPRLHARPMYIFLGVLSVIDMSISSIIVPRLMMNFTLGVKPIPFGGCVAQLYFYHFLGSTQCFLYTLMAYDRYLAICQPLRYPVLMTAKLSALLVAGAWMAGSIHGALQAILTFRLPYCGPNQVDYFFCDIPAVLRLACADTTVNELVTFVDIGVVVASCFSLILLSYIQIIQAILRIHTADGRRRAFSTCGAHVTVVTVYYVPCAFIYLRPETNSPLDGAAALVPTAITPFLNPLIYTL
human class II OR identified in the library screening (Homo sapiens, UniProt A6NM03), sequence (A6NM03 1-292): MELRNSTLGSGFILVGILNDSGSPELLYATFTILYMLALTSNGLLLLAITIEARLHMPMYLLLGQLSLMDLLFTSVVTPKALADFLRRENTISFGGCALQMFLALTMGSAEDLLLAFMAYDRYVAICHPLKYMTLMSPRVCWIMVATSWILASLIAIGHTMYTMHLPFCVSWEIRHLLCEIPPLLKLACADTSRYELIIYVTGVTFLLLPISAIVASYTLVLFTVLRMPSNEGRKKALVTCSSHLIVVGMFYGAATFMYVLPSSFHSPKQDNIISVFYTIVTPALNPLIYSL
human class II OR identified in the library screening (Homo sapiens, UniProt Q15622), sequence (Q15622 whole entry): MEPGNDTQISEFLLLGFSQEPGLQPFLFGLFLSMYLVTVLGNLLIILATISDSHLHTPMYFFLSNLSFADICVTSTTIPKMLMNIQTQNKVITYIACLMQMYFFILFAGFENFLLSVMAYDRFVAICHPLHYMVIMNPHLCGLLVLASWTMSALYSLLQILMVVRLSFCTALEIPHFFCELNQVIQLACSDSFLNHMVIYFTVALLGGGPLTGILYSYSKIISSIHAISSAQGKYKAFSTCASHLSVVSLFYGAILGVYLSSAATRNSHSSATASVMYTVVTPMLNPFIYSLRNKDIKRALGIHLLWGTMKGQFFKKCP
human class II OR identified in the library screening (Homo sapiens, UniProt Q8WZ84), sequence (Q8WZ84 whole entry, the tested form may be a part): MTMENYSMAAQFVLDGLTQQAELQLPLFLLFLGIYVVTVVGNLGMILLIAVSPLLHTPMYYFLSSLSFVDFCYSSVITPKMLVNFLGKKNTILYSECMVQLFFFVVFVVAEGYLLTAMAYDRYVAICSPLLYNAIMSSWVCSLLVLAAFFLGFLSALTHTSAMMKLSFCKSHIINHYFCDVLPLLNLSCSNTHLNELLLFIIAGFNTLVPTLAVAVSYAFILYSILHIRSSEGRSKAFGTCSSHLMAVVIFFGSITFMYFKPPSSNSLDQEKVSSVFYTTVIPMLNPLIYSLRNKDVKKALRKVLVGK
human class II OR identified in the library screening (Homo sapiens, UniProt A6NM03, Y28C), sequence (A6NM03 whole entry Y28C): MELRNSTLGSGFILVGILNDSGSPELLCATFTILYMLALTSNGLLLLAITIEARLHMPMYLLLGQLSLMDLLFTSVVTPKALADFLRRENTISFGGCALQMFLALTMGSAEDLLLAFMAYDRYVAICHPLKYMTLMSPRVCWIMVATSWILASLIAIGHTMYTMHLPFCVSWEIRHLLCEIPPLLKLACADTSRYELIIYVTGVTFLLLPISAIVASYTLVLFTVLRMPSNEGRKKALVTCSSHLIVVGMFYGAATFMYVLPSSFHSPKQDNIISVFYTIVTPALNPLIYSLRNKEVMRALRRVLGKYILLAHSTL

In series [1] (OR1D2, modified C-terminus SEQ ID NO: 221 vs wild-type), `CC/C(C)=C/CC[C@H](C)CCO` [(E,S)-3,7-dimethylnon-6-en-1-ol] showed a Fold improvement efficacy of 14.9 fold. For the same molecule, the 50% effective concentration (EC50) in series [2] is 34.6 µM. In addition, the “Detection threshold; concentration for 2-fold induction, changed C-term.” value in series [3] amounted to 3.0 µM. Moreover, in series [4], the “Detection threshold; concentration for 2-fold induction, wild-type” value is recorded as “no”.
`O=C(OCc1ccccc1)c1ccccc1O` [Benzyl salicylate] returned a Fold improvement efficacy in series [1] (OR2AG2 (Y28C), modified C-terminus SEQ ID NO: 221 vs wild-type) of 10.2 fold. For the same molecule, in [5], the EC50 turned out to be 4.5 µM. Further, the “Detection threshold; concentration for 2-fold induction, changed C-term.” value in series [3] turned out to be 1.3 µM. The “Detection threshold; concentration for 2-fold induction, wild-type” value in series [6] is on record as “no”.
The molecule `CC(C)c1ccc2c(c1)OCC(=O)CO2` [Cascalone] came in with a Fold improvement efficacy in [1] (OR10H2, modified C-terminus SEQ ID NO: 221 vs wild-type) of 7.0 fold. Moreover, the concentration for a half-maximal effect (EC50) in series [1] (OR10H2, modified C-terminus SEQ ID NO: 221 (SEQ ID NO: 680)) amounted to 226 µM. Moreover, the “Detection threshold; concentration for 2-fold induction, changed C-term.” value in [3] was found to be 108.6 µM. Further, the “Detection threshold; concentration for 2-fold induction, wild-type” value in [7] is given as “no”.
As to `SC1CCCC1` [Cyclopentanethiol, reference compound], the Comments on efficacy entry on OR2T4 [8] is “No induction”. Besides, at OR2T4 [8] (OR2T4 with optimized C-terminus SEQ ID NO: 86), the “ligand identification in sulfur odorant screen” value was “good ligands”. Further, on OR2T4 [8] (changed C-term. vs wild-type), the Fold-improvement potency is on record as >>22 and the Fold-improvement threshold was >>100. For the same molecule, on OR2T4 [9], the EC50 is > 316 µM.
On to `CC1=C(O)C(=O)C(C)O1` (centres unmarked) [Furaneol], for which, in series [10], the EC50 is 8.7 µM. In series [1] (OR5M3, EC50 modified C-terminus SEQ ID NO: 221 vs wild-type), the “Potency, Fold-improvement” value stood at 7.5 fold. For the same molecule, in series [1] (setting [21]), the Fold improvement efficacy worked out at 16.8 fold and the “Detection threshold; Fold improvement efficacy” value is on record as 100.7 fold. Also, the EC50 in [11] came out at 65.3 µM. Besides, the “Detection threshold; concentration for 2-fold induction, changed C-term.” value in series [3] came to 0.3 µM. Besides, the “Detection threshold; concentration for 2-fold induction, wild-type” value in series [12] was 30.5 µM.
For the molecule `CC=Cc1ccc(O)c(OC)c1` [Isoeugenol], the Fold improvement efficacy in series [1] (OR10D3, modified C-terminus SEQ ID NO: 221 vs wild-type) was determined as 6.1 fold. Moreover, the EC50 in series [13] amounted to 8.4 µM. Moreover, in series [14], the “Detection threshold; concentration for 2-fold induction, wild-type” value is listed as “no”. Also, the “Detection threshold; concentration for 2-fold induction, changed C-term.” value in [3] was 1.4 µM.
As to `CC(C)=CCC(C)C1CC1(C)CO` (centres unmarked) [Rosyfolia], the Fold improvement efficacy turned out to be 3.0 fold in series [1] (OR2A5, modified C-terminus SEQ ID NO: 221 vs wild-type) and 7.6 fold in series [1] (OR2A25, modified C-terminus SEQ ID NO: 221 vs wild-type). In addition, the EC50 in series [1] (OR2A5, modified C-terminus SEQ ID NO: 221 (SEQ ID NO: 374)) stood at 18 µM; in series [1] (OR2A25, modified C-terminus SEQ ID NO: 221 (SEQ ID NO: 370)), 11 µM. For the same molecule, the “Detection threshold; concentration for 2-fold induction, wild-type” value in series [15] and in [16] was “no” in each case.
For `C=C(C)[C@@H]1CC[C@H](C)C2=C(C1)[C@@H](C)CC2=O` [Rotundone], the Fold improvement efficacy came out at 24. fold in series [1] (OR7A5, modified C-terminus SEQ ID NO: 221 vs wild-type) and 5.9 fold in series [1] (OR7A10, modified C-terminus SEQ ID NO: 221 vs wild-type). In addition, the EC50 amounted to 5.6 µM in [1] (OR7A5, modified C-terminus SEQ ID NO: 221 (SEQ ID NO: 612)) and 0.16 µM in [1] (OR7A10, modified C-terminus SEQ ID NO: 221 (SEQ ID NO: 610)). Also, the “Detection threshold; concentration for 2-fold induction, wild-type” value in series [17] and in [18] was “no” throughout.
For the molecule `CC1=C(O)C(=O)OC1C` (centres unmarked) [Sotolone], the “Potency, Fold-improvement” value in [1] (OR8D1, EC50 modified C-terminus SEQ ID NO: 221 vs wild-type) is 2.5 fold. In [1] (setting [22]), the “Detection threshold; concentration for 2-fold induction, changed C-term.” value turned out to be 0.48 µM and the EC50 was found to be 7.5 µM. Besides, in [1] (setting [23]), the Fold improvement efficacy came out at 2.1 fold and the “Detection threshold; Fold improvement efficacy” value was determined as 5.2 fold. Also, the “Detection threshold; concentration for 2-fold induction, wild-type” value in series [19] worked out at 2.5 µM.
For `COc1cc(C=O)ccc1O` [Vanillin], in [20], the EC50 worked out at 15.3 µM.
